According to patent US6197768A, “Pyridocarbazole derivatives having cgmp-pde inhibitory activity” (Mochida Pharmaceutical Co., Ltd., priority 1996, dated 2001):

Tests used:
PDE type III = target: T1, PDE type III (Canis lupus familiaris, UniProt A0A8I3NYE0); assay: PDE Inhibiting Activity, type III; type: biochemical, dog (canine aorta); settings: PDE type III from canine aorta, 1 μM substrate, pH 7.5; read-out: Inhibition Activity IC50, Type III
T1 construct: PDE was purified from the aorta in a dog; from tissue; host or cells: dog aorta
T1 sequence (A0A8I3NYE0 1-1135): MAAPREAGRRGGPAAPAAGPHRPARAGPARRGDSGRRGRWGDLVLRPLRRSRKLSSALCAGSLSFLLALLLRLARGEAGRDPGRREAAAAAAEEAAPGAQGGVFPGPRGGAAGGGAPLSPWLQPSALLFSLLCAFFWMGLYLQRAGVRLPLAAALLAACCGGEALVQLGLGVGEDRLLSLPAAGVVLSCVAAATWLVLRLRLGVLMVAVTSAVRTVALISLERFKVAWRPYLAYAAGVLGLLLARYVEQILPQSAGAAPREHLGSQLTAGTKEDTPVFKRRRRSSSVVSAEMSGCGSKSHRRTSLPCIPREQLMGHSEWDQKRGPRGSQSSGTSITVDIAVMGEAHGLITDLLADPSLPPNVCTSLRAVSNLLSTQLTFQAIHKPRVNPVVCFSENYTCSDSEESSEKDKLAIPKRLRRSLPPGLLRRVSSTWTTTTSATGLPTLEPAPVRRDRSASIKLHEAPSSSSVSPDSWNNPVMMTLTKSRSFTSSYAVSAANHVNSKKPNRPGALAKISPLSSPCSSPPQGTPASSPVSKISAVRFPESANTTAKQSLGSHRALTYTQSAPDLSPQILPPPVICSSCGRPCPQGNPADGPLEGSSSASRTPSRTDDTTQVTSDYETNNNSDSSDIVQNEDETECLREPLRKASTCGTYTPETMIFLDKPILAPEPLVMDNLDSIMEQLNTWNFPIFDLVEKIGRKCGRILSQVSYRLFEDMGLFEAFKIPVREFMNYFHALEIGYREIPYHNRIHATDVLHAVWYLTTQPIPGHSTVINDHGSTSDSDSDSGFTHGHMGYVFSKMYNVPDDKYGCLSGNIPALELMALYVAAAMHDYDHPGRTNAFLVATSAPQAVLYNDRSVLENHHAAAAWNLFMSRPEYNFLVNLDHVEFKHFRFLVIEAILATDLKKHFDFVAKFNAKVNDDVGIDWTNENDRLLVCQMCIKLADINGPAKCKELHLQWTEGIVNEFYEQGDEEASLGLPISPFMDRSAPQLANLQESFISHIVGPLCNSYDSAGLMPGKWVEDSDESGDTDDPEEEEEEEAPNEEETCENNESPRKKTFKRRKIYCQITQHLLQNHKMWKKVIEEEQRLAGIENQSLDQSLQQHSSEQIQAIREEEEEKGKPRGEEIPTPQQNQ
Experimental: (§1) On the basis of the method of Lugnier et al. (Biochem. Pharmacol., 35, 1743-1751, 1986), PDE was purified from the aorta in a dog. The canine aorta was minced and homogenized with a Waring Blender and a glass homogenizer in six volumes of a Tris-HCl buffer solution (pH 7.5, 20 mM) containing 2 mM magnesium acetate, 5 mM ethylenediaminetetraacetic acid (EDTA), 100 μg/mL of phenylmethylsulforyl fluoride and 15 mM 2-mercaptoethanol (2-ME), and centrifuged at 1200 xg for 30 min. The supernatant was separated and salted out with ammonium sulfate which was added to 45% saturation. The resulting precipitated fraction was resuspended in a Tris-HCl buffer solution (pH 7.5, 20 mM) containing 2 mM magnesium acetate and 1 mM 2-ME, dialyzed overnight and applied to a DEAE-trisacryl column (DEAE […] M:IBF). By elution with a sodium chloride gradient (0-0.4 M), PDE types V and III were separated from the other isozymes. The supernatant fraction of 45% saturated ammonium sulfate was further mixed with ammonium sulfate to 65% saturation and salted out. The resulting precipitated fraction was similarly applied to the DEAE-trisacryl column and eluted by a sodium chloride gradient (0-0.4 M) so as to separate PDE type I.
(§2) The thus obtained PDE types V, III and I were measured for their activity in accordance with the method of Thompson et al. (Adv. Cyclic Nucleotide Res., 10, 69-72, 1979) and the method of Wells et al. (Biochim. Biophys. Acta, 384, 430-443, 1975). Specifically, a purified PDE sample was added to 50 mM Tris-HCl buffer solution (pH 7.5) containing 1 μM of substrate cGMP or cAMP (containing tritium-labelled cGMP or cAMP), 1 mM EGTA and 2 mM magnesium acetate. For PDE activity measurement, enzymatically produced 5' GMP or 5' AMP was further hydrolyzed into guanosine or adenosine with snake venom and separated from the substrate by means of an ion-exchange resin (Dowex 1-X2), followed by measuring with a scintillation counter. The activity of each test compound was determined as a percentage of the DPE activity measured when it was added as a dimethyl sulfoxide solution (DMSO) and its IC50 (50% inhibition concentration) was calculated by the probit method. The final concentration of DMSO was adjusted to be no more than 2% in consideration of the effect on PDE activity.

PDE type I = assay: PDE Inhibiting Activity, type I; type: biochemical, dog (canine aorta); settings: PDE type I from canine aorta, 1 μM substrate, pH 7.5; read-out: Inhibition Activity IC50, Type I
Experimental: as §1, §2

SMILES	IC50 (PDE type III) [µM]	IC50 (PDE type I) [µM]
O=c1c(Cc2cccnc2)cn2c3ccc(Br)cc3c3cc(OCc4ccccc4)cc1c32 [Example 22, 2-benzyloxy-10-bromo-5-(3-pyridylmethyl)-4H-pyrido [3,2,1-jk]carbazole-4-one]	11	> 30
CC(=O)Oc1cc2c(=O)c(Cc3cccnc3)cn3c4ccccc4c(c1)c23 [Example 156]	5.6	> 30
Cc1cn2c3ccc(Br)cc3c3cc(OCC(=O)OC(C)C)cc(c1=O)c32 [Example 51]	> 30	> 30
O=c1c(Cc2cccnc2)cn2c3cc(Cl)ccc3c3cc(OCCCO)cc1c32 [Example 283, 9-chloro-2-(3-hydroxypropyloxy)-5-(3-pyridylmethyl)-4H-pyrido[3,2,1-jk]carbazole-4-one]	3.6	> 30
CCCC(=O)COc1cc2c(=O)c(C)cn3c4ccc(Br)cc4c(c1)c23 [Example 57, 10-bromo-2-(2-oxopentyloxy)-5-methyl-4H-pyrido [3,2,1-jk]carbazole-4-one]	> 30	> 30
CC(C)OC(=O)COc1cc2c(=O)ccn3c4ccc(Br)cc4c(c1)c23 [Example 61, 10-bromo-2-i-propoxycarbonylmethyloxy-4H-pyrido [3,2,1-jk]carbazole-4-one]	> 30	> 30
CC(C)(C)OC(=O)COc1cc2c(=O)c(Cc3cccnc3)cn3c4cc(Br)ccc4c(c1)c23 [Example 103, 9-bromo-2-t-butoxycarbonyl-methyloxy-5-(3-pyridylmethyl)-4H-pyrido [3,2,1-jk]carbazole-4-one]	> 30	
COc1cc2c(=O)ccn3c4ccc(Br)cc4c(c1)c23 [Example 58, 10-bromo-2-methoxy-4H-pyrido [3,2,1-jk]carbazole-4-one]	> 10	> 10
CC(=O)Oc1cc2c(=O)ccn3c4ccc(Br)cc4c(c1)c23 [Example 82]	> 100	> 100
O=c1ccn2c3ccc(Br)cc3c3cc(OCc4ncon4)cc1c32 [Example 76]	> 30	> 30
CC(=O)OCc1cncc(COc2cc3c(=O)c(Cc4cccnc4)cn4c5cc(Br)ccc5c(c2)c34)c1 [Example 106, 2-(5-acetoxymethyl-3-pyridylmethyloxy)-9-bromo-5-(3-pyridylmethyl)-4H-pyrido [3,2,1-jk]carbazole-4-one]	> 30	> 30
O=c1ccn2c3ccc(Br)cc3c3cc(OCc4ccccc4)cc1c32 [Example 66]	> 30	> 30
O=c1c(Cc2cccnc2)cn2c3ccc(Br)cc3c3cc(O)cc1c32 [Example 2, 10-bromo-2-hydroxy-5-(3-pyridylmethyl)-4H-pyrido [3,2,1-jk]carbazole-4-one]	3.6	> 30
O=c1ccn2c3ccc(Br)cc3c3cc(O)cc1c32 [Example 59, 10-bromo-2-hydroxy-4H-pyrido [3,2,1-jk]carbazole-4-one]	> 100	> 100
COc1cc2c(=O)c(C)cn3c4ccc(Br)cc4c(c1)c23 [Example 48, 10-bromo-2-methoxy-5-methyl-4H-pyrido [3,2,1-jk]carbazole-4-one]	> 100	> 100
CCOC(=O)COc1cc2c(=O)c(Cc3cccnc3)cn3c4ccc(Cl)cc4c(c1)c23 [Example 245]	3.9	> 30
O=C(O)COc1cc2c(=O)c(Cc3cccnc3)cn3c4cc(Br)ccc4c(c1)c23 [Example 104, 9-bromo-2-carboxymethyloxy-5-(3-pyridylmethyl)-4H-pyrido [3,2,1-jk]carbazole-4-one]	3.5	> 30
O=c1c(Cc2cccnc2)cn2c3cc(Br)ccc3c3cc(OCc4cncc(CO)c4)cc1c32 [Example 107, 9-bromo-2-(5-hydroxymethyl-3-pyridylmethyloxy)-5-(3-pyridylmethyl)-4H-pyrido [3,2,1-jk]carbazole-4-one]	> 30	> 30
O=C(O)COc1cc2c(=O)ccn3c4ccc(Br)cc4c(c1)c23 [Example 63, 10-bromo-2-carboxymethyloxy-4H-pyrido [3,2,1-jk]carbazole-4-one]	> 30	> 30
CCOC(=O)COc1cc2c(=O)c(Cc3cccnc3)cn3c4ccc(Br)cc4c(c1)c23 [Example 5, 10-bromo-2-ethoxycarbonylmethyloxy-5-(3-pyridylmethyl)-4H-pyrido [3,2,1-jk]carbazole-4-one]	19	> 30
CCCC(=O)COc1cc2c(=O)ccn3c4ccc(Br)cc4c(c1)c23 [Example 83, 10-bromo-2-(2-oxopentyloxy)-4H-pyrido [3,2,1-jk]carbazole-4-one]	> 30	> 30
Cc1cc2c(=O)ccn3c4ccc(Br)cc4c(c1)c23 [Example 277]	> 30	> 30
O=c1ccn2c3ccc(Br)cc3c3cc(OCc4cccnc4)cc1c32 [Example 64, 10-bromo-2-(3-pyridylmethyloxy)-4H-pyrido [3,2,1-jk]carbazole-4-one]	81	> 100
CC(C)OC(=O)COc1cc2c(=O)c(Cc3cccnc3)cn3c4ccc(Br)cc4c(c1)c23 [Example 4, 10-bromo-2-i-propoxycarbonylmethyloxy-5-(3-pyridylmethyl)-4H-pyrido [3,2,1-jk]carbazole-4-one]	6.8	> 30
O=c1c(Cc2ccccc2)cn2c3cc(Br)ccc3c3cc(O)cc1c32 [Example 122, 5-benzyl-9-bromo-2-hydroxy-4H-pyrido [3,2,1-jk]carbazole-4-one]	13	> 30
COc1cc2c(=O)c(Cc3ccccc3)cn3c4cc(Br)ccc4c(c1)c23 [Example 121, 5-benzyl-9-bromo-2-methoxy-4H-pyrido [3,2,1-jk]carbazole-4-one]	> 30	> 30
O=c1c(Cc2cccnc2)cn2c3ccc(Br)cc3c3cc(OCc4cccnc4)cc1c32 [Example 18, 10-bromo-5-(3-pyridylmethyl)-2-(3-pyridylmethyloxy)-4H-pyrido [3,2,1-jk]carbazole-4-one]	1.9	> 30
O=c1c(Cc2cccnc2)cn2c3cc(C(F)(F)F)ccc3c3cc(OCCCO)cc1c32 [Example 289, 2-(3-hydroxypropyloxy)-5-(3-pyridylmethyl)-9-trifluoromethyl-4H-pyrido[3,2,1-jk]carbazole-4-one]	2.5	> 30
COc1cc2c(=O)c(Cc3cccnc3)cn3c4cc(Br)ccc4c(c1)c23 [Example 101, 9-bromo-2-methoxy-5-(3-pyridylmethyl)-4H-pyrido [3,2,1-jk]carbazole-4-one]	> 30	> 30
